Results from publication PMC9014415, “Repositioning of a Diaminothiazole Series Confirmed to Target the Cyclin-Dependent Kinase CRK12 for Use in the Treatment of African Animal Trypanosomiasis” (Journal of Medicinal Chemistry, 2022).
Several values for one entry are separate records, joined by “and”; a condition that tells them apart may be missing. Equal values may be shown once.

Experiments:
[1] = PK and formulation studies in Sprague Dawley rats, IM; type: in vivo; conditions: rat, single IM 5 mg/kg
Procedure: 2.4 Protein plasma binding […]
2.6 PK and formulation studies - male Sprague rats
Compound 1 was dosed SC at 5 mg free base/kg (dose volume 0.2 or 1 mL/kg; dose vehicle 10% N-methyl-2- pyrrolidinone (NMP), 30% 2-pyrrolidinone, 40% PEG400, 20% deionized water or 10% DMSO, 30% PEG400 and 60% deionized water, respectively) or IM at 5 and 10 mg free base/kg (dose volume 0.2 mL/kg; dose vehicle 10% NMP, 30% 2-pyrrolidinone, 40% PEG400, 20% deionized water or 83.4% 2-pyrrolidinone/polyvinylpyrrolidone (PVP), 16.6% saline or 80% 2-pyrrolidinone/NMP/PVP, 20% (0.05% 2-propanol in saline) to male SD rats (n=3).
Compound 2 was dosed IV at 3 mg free base/kg (dose volume 1 mL/kg; dose vehicle: 10% DMSO, 40% PEG400 and 50% deionized water) or IM at 5, 10 and 20 mg free base/kg (dose volume 0.2 […]
and 0.4 mL/kg; dose vehicle 10% NMP, 30% 2-pyrrolidinone, 40% PEG400, 20% deionized water or 83.4% 2-pyrrolidinone/polyvinylpyrrolidone (PVP), 16.6% saline or 80% 2-pyrrolidinone/NMP/PVP, 20% 0.05% 2-propanol in saline or 40% 0.3M Acetate Buffer, 20% Kolliphor, 20% glycerol formal, 20% 2-pyrrolidinone or 40% 0.3M Acetate Buffer, 20% glycerol formal, 20% 2-pyrrolidinone) to male SD rats (n=3). […]
Compound 2 was dosed IM at 10 mg free base/kg (dose volume 2 mL/10 kg; dose vehicle 40% 0.3 M Acetate Buffer, 20% Kolliphor EL, 20% glycerol formal, 20% 2-pyrrolidone) or IV at 2 mg free base/kg (dose volume 0.4 mL/10 kg; 40% 0.3 M Acetate Buffer, 20% Kolliphor EL, 20% glycerol formal, 20% 2-pyrrolidone) to male ruminating Holstein-Friesian cross animals (n = 3). Blood samples were taken from each animal using 18-G needles into EDTA (K2) vacutainers before dosing […]
into a cool box containing iced water and were processed within 2 h of collection.
2.8 Formulation and tolerability studies for compound 2 (NorthWest Biopharm) A study to identify alternative formulations was conducted. Compound 2, either as the hydrochloride salt or free base, was screened to identify a 50 mg/mL soluble formulation suitable for injection. […]
Kolliphor EL, N-methyl pyrrolidone, 2-pyrrolidone and 11% water at 5 mg/kg was assessed, IM […]
A screen of salt forms as alternatives to the hydrochloride was carried out at Drugabilis. Ten pharmaceutically acceptable counter ions were assessed and three were selected for further study […]
(citrate, fumarate and phosphate) (Figure 9). These alternative salt forms of compound 2 were prepared and formulated in the best vehicle determined by injection site tolerability analysis (0.3M sodium acetate buffer, Kolliphor EL, N-methyl pyrrolidone, 2-pyrrolidone, and 11% water suitable for injection). […]

[2] = Estimated EC99 used for PK/PD (parasite not stated); conditions: free blood level threshold
Text: Given promising in vivo efficacy data in mice (Table 1), compound 1 was progressed into cattle pharmacokinetic studies, dosing both IV and IM (Table 2, Figure S2, and Table S4). […] This low bioavailability was likely a consequence of poor compound release from the injection site following IM administration in cattle due to the low solubility of compound 1, probably leading to compound accumulation and precipitation at the injection site.

T. congolense = assay: Cattle efficacy for compound 2, intramuscular (CIRDES), T. congolense; type: in vivo, Trypanosoma congolense
Procedure: Compound 2 was progressed into IM efficacy studies dosing at 10 mg/kg either once or twice, 15 h apart, in cattle infected with T. congolense or T. vivax. […]
3.5 Cattle efficacy for compound 2, intramuscular (CIRDES)
Felani-zebu cattle were housed in a fly-proof facility, acclimatised for 15 d prior to the study, cattle were treated with an anthelmintic, an ectoparasiticide and an antibiotic. Donor animals were infected with stabilates (frozen stocks) of either T. congolense KOT256 (resistant to 7 mg/kg diminazene in cattle) or T. vivax Gando Bongaly (resistant to diminazene 7 mg/kg and to isometamidium 1 mg/kg […]
in cattle). Blood from the donor animals, diluted with phosphate buffered glucose was used to infect recipient animals IV via the jugular vein. Infection was with approximately 100,000 fresh viable parasites. The compounds were given IM. Each injection was up to 10 mL and given in neck in the following order: left anterior third, right anterior third, left posterior third and right posterior third.
Animals over 240 kg required a fifth injection site for the IVP, and this was given in the left or right hind leg. Cattle were randomised to treatments. Parasitaemia was monitored 3 times per calendar week, though collection of blood and assessment of clinical symptoms. Blood samples were also […]
treatment). […]

Compound	Cmax ([1]; male, blood, Sprague Dawley rats, 10% NMP, 30% 2-pyrrolidinone, 40% PEG400, 20% water, mean)	AUC(0-t) ([1]; male, blood, Sprague Dawley rats, 10% NMP, 30% 2-pyrrolidinone, 40% PEG400, 20% water, mean, read-out: AUC0-8 (converted))	Time at which free concentration in blood <EC99 ([1]; formulation A: 83.4% PVP/2-pyrrolidone, 16.6% saline)	Time at which free concentration in blood <EC99 ([1]; formulation B: 80% vehicle 1 (NMP:2-pyrrolidone): 20% vehicle 2)	estimated EC99 [2]	Cattle cured (T. congolense; 10 mg/kg IM twice, 15 h apart, treatment groups T2 and T4 together)	efficacy (T. congolense; T1, 10 mg/kg IM once, cured/animals, 100 days)	Efficacy, individual animals (T. congolense; T1 single dose IM, animals 1903, 1910, 1913, 1924, 1935, 1936)	efficacy (T. congolense; T2, 10 mg/kg IM twice, 15 h apart, cured/animals)	Efficacy, individual animals (T. congolense; T2 dosed twice IM, animals 1905, 1906, 1909, 1917)	efficacy (T. congolense; T4, saline twice, followed by compound 2 rescue dose twice IM 5 days later)	Efficacy, individual animals (T. congolense; T4 after 2 (two rescue doses IM), animals 1914, 1921, 1923, 1927)
CC(C)CS(=O)(=O)N[C@H]1CC[C@H](Nc2nc(N)c(C(=O)c3c(F)cccc3F)s2)CC1 [Compound 1, N-((trans)-4-((4-Amino-5-(2,6-difluorobenzoyl)thiazol-2-yl)amino)cyclohexyl)-2-methylpropane-1-sulfonamide]	92 ng/mL	354 ng·h/mL	3 h	4 h	1.6 ng/mL	–	–	–	–	–	–	–
CC(C)CS(=O)(=O)N[C@H]1CC[C@H](Nc2nc(N)c(C(=O)c3c(F)cc(CN(C)C)cc3F)s2)CC1 [Compound 2, N-(trans)-[4-[[4-Amino-5-[4-(dimethylaminomethyl)-2,6-difluoro-benzoyl]thiazol-2-yl]amino]cyclohexyl]-2-methyl-propane-1-sulfonamide]	–	–	–	–	–	three out of the eight	0/6	no	1/4	no (3×) and yes	2/4	no (2×) and yes (2×)
